Measurements taken from patent publication US20260224571A1, “AZACYCLOALKANE COMPOUND AND PHARMACEUTICAL COMPOSITION, AND USE THEREOF” (Prime Gene Therapeutics Co., Ltd., priority 2023, published 2026).

Tests used:
ROCK1 = ROCK1 (Homo sapiens, UniProt Q13464); assay: ROCK1 kinase enzymatic activity (HTRF, STK2 substrate); assay type: biochemical; conditions: ROCK1 kinase reacted at room temperature for 20 minutes
Source text: (§1) The kinase activity data was expressed by comparing the kinase activity of the test compound and that of the blank group (containing only DMSO), and the IC50 value was obtained by curve fitting using Prism software (GraphPad7.0).

ROCK2 = ROCK2 (Homo sapiens, UniProt O75116); assay: ROCK2 kinase enzymatic activity (HTRF, STK2 substrate); assay type: biochemical; conditions: ROCK2 kinase reacted at room temperature for 30 minutes
Source text: as §1

Chain of ROCK1 (Q13464 whole entry): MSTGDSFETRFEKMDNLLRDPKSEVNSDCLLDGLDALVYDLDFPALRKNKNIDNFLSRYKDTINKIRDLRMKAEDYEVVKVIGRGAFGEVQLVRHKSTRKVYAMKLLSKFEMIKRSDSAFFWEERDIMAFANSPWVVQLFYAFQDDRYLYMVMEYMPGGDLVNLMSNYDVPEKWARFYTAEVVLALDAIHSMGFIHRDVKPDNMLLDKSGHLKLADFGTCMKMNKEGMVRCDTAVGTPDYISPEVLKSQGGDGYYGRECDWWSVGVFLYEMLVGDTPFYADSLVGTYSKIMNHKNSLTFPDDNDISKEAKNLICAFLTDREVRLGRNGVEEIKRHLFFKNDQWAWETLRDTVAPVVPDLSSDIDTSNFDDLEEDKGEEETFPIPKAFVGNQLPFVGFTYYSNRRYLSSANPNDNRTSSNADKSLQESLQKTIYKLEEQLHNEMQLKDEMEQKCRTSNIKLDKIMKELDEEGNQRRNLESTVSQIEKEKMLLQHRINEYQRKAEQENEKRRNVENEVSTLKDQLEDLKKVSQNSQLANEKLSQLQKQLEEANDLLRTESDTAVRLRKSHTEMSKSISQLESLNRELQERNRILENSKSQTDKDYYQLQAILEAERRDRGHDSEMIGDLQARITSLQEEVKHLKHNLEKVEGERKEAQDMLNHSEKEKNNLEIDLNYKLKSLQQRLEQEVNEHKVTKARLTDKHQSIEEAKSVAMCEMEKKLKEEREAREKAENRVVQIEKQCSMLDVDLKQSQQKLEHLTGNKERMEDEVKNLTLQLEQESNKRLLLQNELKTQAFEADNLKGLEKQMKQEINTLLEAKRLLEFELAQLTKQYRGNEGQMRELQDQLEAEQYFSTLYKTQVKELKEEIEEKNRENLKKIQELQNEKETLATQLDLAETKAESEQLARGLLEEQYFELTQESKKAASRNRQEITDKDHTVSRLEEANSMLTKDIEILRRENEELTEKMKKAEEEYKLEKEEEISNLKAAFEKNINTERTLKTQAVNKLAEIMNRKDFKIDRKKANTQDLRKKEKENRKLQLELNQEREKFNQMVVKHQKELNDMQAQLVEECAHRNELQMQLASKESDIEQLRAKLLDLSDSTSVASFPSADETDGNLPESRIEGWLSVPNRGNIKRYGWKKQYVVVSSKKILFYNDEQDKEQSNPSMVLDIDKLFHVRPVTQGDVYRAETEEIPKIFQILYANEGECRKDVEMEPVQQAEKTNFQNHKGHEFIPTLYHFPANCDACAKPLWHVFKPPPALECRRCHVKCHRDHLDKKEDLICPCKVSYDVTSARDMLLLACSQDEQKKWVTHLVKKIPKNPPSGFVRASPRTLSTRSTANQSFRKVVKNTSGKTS
Chain of ROCK2 (O75116 whole entry): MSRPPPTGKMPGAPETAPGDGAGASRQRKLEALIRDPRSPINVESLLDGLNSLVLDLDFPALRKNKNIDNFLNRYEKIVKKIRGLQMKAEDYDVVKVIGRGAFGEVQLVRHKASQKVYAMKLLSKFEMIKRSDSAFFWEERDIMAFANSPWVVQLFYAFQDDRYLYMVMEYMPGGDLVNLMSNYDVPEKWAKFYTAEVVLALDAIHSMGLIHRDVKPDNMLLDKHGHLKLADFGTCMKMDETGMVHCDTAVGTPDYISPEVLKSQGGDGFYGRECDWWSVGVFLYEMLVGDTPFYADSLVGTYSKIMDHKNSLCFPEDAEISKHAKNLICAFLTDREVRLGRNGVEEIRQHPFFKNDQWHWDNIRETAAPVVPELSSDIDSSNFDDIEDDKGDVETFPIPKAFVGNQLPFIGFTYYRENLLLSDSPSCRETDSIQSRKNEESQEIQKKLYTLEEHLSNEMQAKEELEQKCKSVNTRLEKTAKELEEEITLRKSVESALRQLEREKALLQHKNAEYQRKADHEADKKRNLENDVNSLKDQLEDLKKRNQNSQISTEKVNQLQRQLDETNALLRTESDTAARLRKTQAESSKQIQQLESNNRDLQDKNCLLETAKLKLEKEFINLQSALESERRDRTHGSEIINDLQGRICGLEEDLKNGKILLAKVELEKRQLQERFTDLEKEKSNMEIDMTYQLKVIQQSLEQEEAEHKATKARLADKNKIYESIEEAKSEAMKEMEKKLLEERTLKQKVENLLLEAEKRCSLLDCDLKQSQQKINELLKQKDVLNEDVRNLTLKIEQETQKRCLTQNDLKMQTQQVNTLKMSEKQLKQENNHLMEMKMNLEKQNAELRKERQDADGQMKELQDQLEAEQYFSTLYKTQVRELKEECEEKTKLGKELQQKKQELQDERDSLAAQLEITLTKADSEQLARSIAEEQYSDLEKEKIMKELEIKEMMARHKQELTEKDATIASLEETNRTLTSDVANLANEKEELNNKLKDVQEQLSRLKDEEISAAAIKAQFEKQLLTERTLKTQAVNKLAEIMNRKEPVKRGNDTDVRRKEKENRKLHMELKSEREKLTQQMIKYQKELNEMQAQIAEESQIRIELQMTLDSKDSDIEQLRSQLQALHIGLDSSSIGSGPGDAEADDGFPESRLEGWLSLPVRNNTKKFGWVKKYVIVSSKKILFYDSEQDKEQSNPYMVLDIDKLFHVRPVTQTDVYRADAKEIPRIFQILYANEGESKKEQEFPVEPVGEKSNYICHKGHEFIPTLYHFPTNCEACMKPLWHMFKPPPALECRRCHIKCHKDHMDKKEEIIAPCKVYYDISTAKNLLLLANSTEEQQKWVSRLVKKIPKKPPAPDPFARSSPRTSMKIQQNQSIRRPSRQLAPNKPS

| IC50 (ROCK1) [nM] | IC50 (ROCK2) [nM] | Structure (SMILES) |
| --- | --- | --- |
| > 100 | > 100 | CCS(=O)(=O)N1CC(CC#N)(n2cc(-c3cc(-c4cnn(C)c4)cn4ncnc34)c(N)n2)C1 [Example 81] |
| < 5 | < 5 | CC(N)CS(=O)(=O)N1CC(CC#N)(n2cc(-c3ncnc4[nH]ccc34)c(N)n2)C1 (stereo not shown) [Example 86, 2-(3-(3-amino-4-(7H-pyrrolo[2,3-d]pyrimidin-4-yl)-1H-pyrazol-1-yl)-1-((2-aminopropyl)sulfonyl)azetidine-3-yl)acetonitrile] |
| < 10 | < 10 | N#CCC1(n2cc(-c3ncnc4[nH]ccc34)c(N)n2)CN(C(=O)NCC(F)(F)F)C1 [Example 11, 3-(3-amino-4-(7H-pyrrolo[2,3-d]pyrimidin-4-yl)-1H-pyrazol-1-yl)-3-(cyanomethyl)-N-(2,2,2-trifluoroethyl)azetidine-1-formamide] |
| > 100 | > 100 | CS(=O)(=O)N1CC(CC#N)(n2cc(-c3cc(NC4CCOCC4)ncn3)c(N)n2)C1 [Example 75, 2-(3-(3-amino-4-(6-((tetrahydro-2H-pyran-4-yl)amino)pyrimidin-4-yl)-1H-pyrazol-1-yl)-1-(methylsulfonyl)azetidine-3-yl)acetonitrile] |
| < 50 | < 50 | N#CCC1(n2cc(-c3ncnc4[nH]ccc34)c(N)n2)CN(C(=O)C2(F)CC2)C1 [Example 24, 2-(3-(3-amino-4-(7H-pyrrolo[2,3-d]pyrimidin-4-yl)-1H-pyrazol-1-yl)-1-(1-fluorocyclopropane-1-carbonyl)azetidine-3-yl)acetonitrile] |
| < 50 | < 50 | CC(C)S(=N)(=O)N1CC(CC#N)(n2cc(-c3ncnc4[nH]ccc34)c(N)n2)C1 (stereo not shown) [Example 39, 2-(3-(3-amino-4-(7H-pyrrolo[2,3-d]pyrimidin-4-yl)-1H-pyrazol-1-yl)-1-(prop-2-yl-sulfonylimino)azetidine-3-yl)acetonitrile] |
| < 10 | < 10 | COC(=O)CNS(=O)(=O)N1CC(CC#N)(n2cc(-c3ncnc4[nH]ccc34)c(N)n2)C1 [Example 53, methyl (3-(3-amino-4-(7H-pyrrolo[2,3-d]pyrimidin-4-yl)-1H-pyrazol-1-yl)-3-(cyanomethyl)azetidine-1-ylsulfonyl)glycinate] |
| > 100 | > 100 | CCS(=O)(=O)N1CC(CC#N)(n2cc(-c3cc(Cl)nc4ccnn34)c(N)n2)C1 [Example 84, 2-(3-(3-amino-4-(5-chloropyrazolo[1,5-a]pyrimidin-7-yl)-1H-pyrazol-1-yl)-1-(ethylsulfonyl)azetidine-3-yl)acetonitrile] |
| > 100 | > 100 | CCS(=O)(=O)N1CC(CC#N)(n2cc(-c3ncnc4[nH]ccc34)c(C(N)=O)n2)C1 [Example 66, 1-(3-(cyanomethyl)-1-(ethylsulfonyl)azetidine-3-yl)-4-(7H-pyrrolo[2,3-d]pyrimidin-4-yl)-1H-pyrazol-3-formamide] |
| < 5 | < 5 | CS(=N)(=O)N1CC(CC#N)(n2cc(-c3ncnc4[nH]ccc34)c(N)n2)C1 (stereo not shown) [Example 36, 2-(3-(3-amino-4-(7H-pyrrolo[2,3-d]pyrimidin-4-yl)-1H-pyrazol-1-yl)-1-(S-methysulfonylimino)azetidine-3-yl)acetonitrile] |
| < 50 | < 50 | N#CCC1(n2cc(-c3ncnc4[nH]ccc34)c(N)n2)CN(S(=O)(=O)NCCO)C1 [Example 44, 3-(3-amino-4-(7H-pyrrolo[2,3-d]pyrimidin-4-yl)-1H-pyrazol-1-yl)-3-(cyanomethyl)-N-(2-hydroxyethyl)azetidine-1-sulfonamide] |
| > 100 | > 100 | CNC(=O)c1nn(C2(CC#N)CN(S(=O)(=O)C(C)C)C2)cc1-c1ncnc2[nH]ccc12 [Example 64, 1-(3-(cyanomethyl)-1-(isopropylsulfonyl)azetidine-3-yl)-N-methyl-4-(7H-pyrrolo[2,3-d]pyrimidin-4-yl)-1H-pyrazol-3-formamide] |
| < 50 | > 100 | COc1nn(C2(CC#N)CN(S(=O)(=O)C(C)C)C2)cc1-c1ncnc2[nH]ccc12 [Example 59, 2-(1-(isopropylsulfonyl)-3-(3-methoxy-4-(7H-pyrrolo[2,3-d]pyrimidin-4-yl)-1H-pyrazol-1-yl)azetidine-3-yl)acetonitrile] |
| < 100 | < 50 | N#CCC1(n2cc(-c3ncnc4[nH]ccc34)c(N)n2)CN(S(=O)(=O)NS(N)(=O)=O)C1 [Example 42, 3-(3-amino-4-(7H-pyrrolo[2,3-d]pyrimidin-4-yl)-1H-pyrazol-1-yl)-3-(cyanomethyl)-N-sulfamoylazetidine-1-sulfonamide] |
| < 10 | < 10 | N#CCN1CC(CC#N)(n2cc(-c3ncnc4[nH]ccc34)c(N)n2)C1 [Example 29, 2,2′-(3-(3-amino-4-(7H-pyrrolo[2,3-d]pyrimidin-4-yl)-1H-pyrazol-1-yl)azetidine-1,3-diyl)diacetonitrile] |
| > 100 | > 100 | CS(=O)(=O)N1CC(CC#N)(n2cc(-c3ncnc(NCCO)n3)c(N)n2)C1 [Example 70, 2-(3-(3-amino-4-(4-((2-hydroxyethyl)amino)-1,3,5-triazin-2-yl)-1H-pyrazol-1-yl)-1-(methylsulfonyl)azetidine-3-yl)acetonitrile] |
| < 50 | < 50 | C[C@H](N)C(=O)N1CC(CC#N)(n2cc(-c3ncnc4[nH]ccc34)c(N)n2)C1 [Example 23, 2-(1-alaninyl-3-(3-amino-4-(7H-pyrrolo[2,3-d]pyrimidin-4-yl)-1H-pyrazol-1-yl)azetidine-3-yl)acetonitrile] |
| < 50 | < 50 | N#CCC1(n2cc(-c3ncnc4[nH]ccc34)c(N)n2)CN(C(=O)N2CC(F)(F)C2)C1 [Example 13, 2-(3-(3-amino-4-(7H-pyrrolo[2,3-d]pyrimidin-4-yl)-1H-pyrazol-1-yl)-1-(3,3-difluoroazetidine-1-carbonyl)azetidin-3-yl)acetonitrile] |
| > 100 | > 100 | CN1CCC(Nc2ncnc(-c3cn(C4(CC#N)CN(S(C)(=O)=O)C4)nc3N)n2)CC1 [Example 71, 2-(3-(3-amino-4-(4-((1-methylpiperidin-4-yl)amino)-1,3,5-triazin-2-yl)-1H-pyrazol-1-yl)-1-(methylsulfonyl)azetidine-3-yl)acetonitrile] |
| < 50 | < 50 | N#CCC1(n2cc(-c3ncnc4[nH]ccc34)c(N)n2)CN(S(=O)(=O)NCC(=O)O)C1 [Example 54] |
| < 10 | < 10 | N#CCC1(n2cc(-c3ncnc4[nH]ccc34)c(N)n2)CN(C(=O)C2(C#N)CC2)C1 [Example 26, 1-(3-(3-amino-4-(7H-pyrrolo[2,3-d]pyrimidin-4-yl)-1H-pyrazol-1-yl)-3-(cyanomethyl)azetidine-1-carbonyl)cyclopropane-1-nitrile] |
| > 100 | > 100 | CC(C)S(=O)(=O)N1CC(CC#N)(n2cc(-c3ncnc4[nH]ccc34)c(C(N)=O)n2)C1 [Example 68, 1-(3-(cyanomethyl)-1-(isopropylsulfonyl)azetidine-3-yl)-4-(7H-pyrrolo[2,3-d]pyrimidin-4-yl)-1H-pyrazol-3-formamide] |

| Structure (SMILES) | IC50 (ROCK1) [nM] | IC50 (ROCK2) [nM] |
| --- | --- | --- |
| N#CCC1(n2cc(-c3ncnc4[nH]ccc34)c(N)n2)CN(S(=O)(=O)NCCCl)C1 [Example 46, 3-(3-amino-4-(7H-pyrrolo[2,3-d]pyrimidin-4-yl)-1H-pyrazol-1-yl)-N-(2-chloroethyl)-3-(cyanomethyl)azetidine-1-sulfonamide] | < 10 | < 5 |
